Here are results for two compounds from ChEMBL document CHEMBL3044817, “Antifeedant and mosquitocidal compounds from Delphinium x cultorum cv. Magic fountains flowers” (J Agric Food Chem, 2000).

Active and inactive are the calls of the source. The rule behind the calls is not given here.

The test has as its system Helicoverpa zea. The test can be described thus: Antifeedant activity against Helicoverpa zea (corn earworm) at 250 mg/ml at 28 degC day/24 degC night measured after 6 days. It is filed as functional, organism-based.

For `Oc1ccc(C(O)c2ccc(O)cc2)cc1`, the outcome was inactive.

As for `O=C(O)c1ccc(O)cc1`, the result was inactive.
